The NIST ThermoML archive (doi:10.1021/je100598x)

Assay: cn = amount concentration of the nth substance listed, in mol/dm3
Conditions: 101 kPa, Liquid, Direct current cell with electrodes

CCCCCCCCCCCC[N+](CC)(CC)CC.[Br-] [dodecyltriethylammonium bromide] + O
electrical conductivity [S/m]
Conditions | 288.15 K | 293.15 K | 298.15 K | 303.15 K | 308.15 K | 313.15 K | 318.15 K
c1 = 0.001316 | 0.0105 | 0.0119 | 0.0132 | 0.0146 | 0.01605 | 0.0176 | 0.019
c1 = 0.002597 | 0.02 | 0.0226 | 0.0252 | 0.028 | 0.0306 | 0.0335 | 0.0363
c1 = 0.003846 | 0.0289 | 0.0327 | 0.0365 | 0.0406 | 0.0443 | 0.0486 | 0.0526
c1 = 0.005063 | 0.0374 | 0.0423 | 0.0473 | 0.0526 | 0.0573 | 0.0631 | 0.0682
c1 = 0.00625 | 0.0456 | 0.0516 | 0.0576 | 0.0641 | 0.0698 | 0.0768 | 0.0831
c1 = 0.007407 | 0.053 | 0.0604 | 0.0676 | 0.0752 | 0.0819 | 0.09 | 0.0976
c1 = 0.008536 | 0.0609 | 0.0689 | 0.0771 | 0.0859 | 0.0934 | 0.1028 | 0.1114
c1 = 0.009638 | 0.0681 | 0.077 | 0.0862 | 0.0962 | 0.1047 | 0.115 | 0.1247
c1 = 0.01071 | 0.0751 | 0.085 | 0.095 | 0.106 | 0.116 | 0.127 | 0.137
c1 = 0.01177 | 0.0818 | 0.0926 | 0.1035 | 0.115 | 0.126 | 0.139 | 0.15
c1 = 0.01279 | 0.0884 | 0.1 | 0.1116 | 0.1245 | 0.136 | 0.149 | 0.1607
c1 = 0.01379 | 0.0946 | 0.107 | 0.119 | 0.1325 | 0.1445 | 0.159 | 0.173
c1 = 0.01477 | 0.0997 | 0.1119 | 0.1243 | 0.138 | 0.1513 | 0.167 | 0.1822
c1 = 0.01573 | 0.1033 | 0.115 | 0.128 | 0.1426 | 0.156 | 0.1726 | 0.189
c1 = 0.01667 | 0.106 | 0.118 | 0.1315 | 0.146 | 0.1607 | 0.178 | 0.196
c1 = 0.01758 | 0.108 | 0.121 | 0.1345 | 0.15 | 0.165 | 0.1821 | 0.2
c1 = 0.01848 | 0.1105 | 0.1235 | 0.137 | 0.1528 | 0.169 | 0.186 | 0.206
c1 = 0.01936 | 0.1125 | 0.126 | 0.1401 | 0.156 | 0.1721 | 0.1911 | 0.211
c1 = 0.02021 | 0.1144 | 0.128 | 0.1427 | 0.159 | 0.175 | 0.195 | 0.215
c1 = 0.02105 | 0.116 | 0.1303 | 0.145 | 0.1616 | 0.179 | 0.199 | 0.22
c1 = 0.02188 | 0.118 | 0.1324 | 0.148 | 0.1645 | 0.1821 | 0.202 | 0.224
c1 = 0.02268 | 0.12 | 0.1344 | 0.15 | 0.167 | 0.185 | 0.206 | 0.228
c1 = 0.02347 | 0.1215 | 0.136 | 0.1524 | 0.17 | 0.189 | 0.209 | 0.232
c1 = 0.02424 | 0.1231 | 0.138 | 0.1546 | 0.1723 | 0.1916 | 0.213 | 0.236
c1 = 0.025 | 0.125 | 0.1403 | 0.157 | 0.175 | 0.1946 | 0.216 | 0.24
